Experimental data from the NIST ThermoML archive (doi:10.1016/j.fluid.2019.03.019).
Numbers after ± are expanded uncertainties.

Conditions: Liquid; for mass density: 298.15 K, 101.33 kPa, Vibrating tube method; for vapor or sublimation pressure: Closed cell (Static) method

Row | Structure (SMILES) | mass density [kg/m3] | vapor or sublimation pressure (383.15 K) [kPa] | vapor or sublimation pressure (403.15 K) [kPa] | vapor or sublimation pressure (413.15 K) [kPa] | vapor or sublimation pressure (393.15 K) [kPa] | vapor or sublimation pressure (362.65 K) [kPa] | vapor or sublimation pressure (363.15 K) [kPa] | vapor or sublimation pressure (391.95 K) [kPa] | vapor or sublimation pressure (392.95 K) [kPa] | vapor or sublimation pressure (420.95 K) [kPa] | vapor or sublimation pressure (422.95 K) [kPa] | vapor or sublimation pressure (423.15 K) [kPa]
1 | COC(=O)OC [dimethyl carbonate] | 1063.24 ± 0.1 | 187 ± 6 | 320 ± 6 | 414 ± 6 |  |  |  |  |  |  |  | 
2 | CCO [ethanol] | 785.09 ± 0.13 |  |  |  | 429 ± 7 |  |  |  |  |  |  | 
3 | CO [methanol] | 786.42 ± 0.13 | 481 ± 6 | 843 ± 7 | 1092 ± 7 | 640 ± 7 | 251 ± 6 | 255 ± 6 | 618 ± 6 | 636 ± 7 | 1316 ± 7 | 1380 ± 8 | 1387 ± 8
4 | O [water] |  |  |  |  | 199 ± 6 |  |  |  |  |  |  | 
